In US20250273312A1, “SYSTEM AND METHOD FOR IMMUNOSUPPRESSANT DOSAGE” (THE REGENTS OF THE UNIVERSITY OF CALIFORNIA, priority 2021, published 2025):

Legend:
[1] = Average deviation between target (predicted) and measured tacrolimus serum level for dosing Functions 0, 1, 2; design: species or system human; settings: unit assumed
Source text: Additionally, data from the clinical trial was utilized to determine the average deviations between a target (i.e., predicted) serum level and an actual (i.e., measured) serum level for the two PPM patients.
Where Function 0 is ST(DT, t)=x0(t)+x1(t)DT+x11(t)DT^2; Function 1 is [(D/S)T](N+1) day=[(D/S)T]N day; and Function 2 is [(D/S)T]next day=x0(t)+x1(t)[AST×(D/S)T]today+z11(t)[AST×(D/S)T] today. […] By incorporating the AST level the current system and methods can provide further improvement in achieving a target serum levels

[2] = Same clinical trial: clinical outcomes (length of stay, AST normalization, neurotoxicity); type: in vivo, human
Source text: (§1) The inclusion criteria for the study was (1) the subject was undergoing primary or secondary liver or simultaneous liver and kidney transplantation; (2) the subject or a surrogate was able to provide informed consent; and (3) the subject was at least 18 years of age. […] Sixty two (62) subjects were accepted into the trial.
(§2) Each of the 62 selected subjects were randomized, with half (31) assigned to a control group and the other half (31) assigned to a phenotypic personalized medicine (PPM) group. The subjects were blinded to group assignments; the clinical team was not blinded. The patients in the PPM group were given tacrolimus dosages based on the present dosage calculation system and patients of the Control group were given tacrolimus dosages based on standard-of-care (SOC) dosing. The SOC dosing utilized a combination of dose titration and a subjective determination by a clinician. The subjective determination relied on patient weight, age, muscle mass, race/ethnicity, frailty, diet, concomitant medication, and other factors to select an initial dose for the next twenty-four hours. The patient's response to this dose is then taken into consideration for determining the next day's dose recommendation. This determination was repeated each day until the patient was able to be released from the hospital.
Tacrolimus dosage was discontinued for one patient in each of the PPM group and the Control group. […] As this would affect dosing accuracy and the study outcomes, this patient was excluded from analysis. One patient assigned to the Control group refused multiple tacrolimus doses in the post-operative period and was therefore excluded from analysis. The remaining 56 (29 Control group and 27 PPM group) patients completed the study and were discharged from the hospital after transplantation.
Following liver transplantation, all study patients were started on standard-of-care medication regimen: a three-drug combination of tacrolimus, a corticosteroid, and mycophenolate. Blood tacrolimus trough levels were measured daily in the morning until patient discharge. […] After the third day, the Control group continued with the standard-of-care procedure while the PPM group subjects were given dosages calculated by the PPM prediction model, shown in the Function below.
The primary outcome measure was percent days with large (>2 ng/ml) deviations from target range. Secondary outcomes included percent days outside-of-target range, ratio of area-under-the-curve outside-of-target-range to total days, graft rejection, graft failure, death, infections, length of stay, nephrotoxicity episodes, or neurotoxicity episodes. Comparisons between the two groups were performed using either the two-tailed Welch's t-test or Student's t-test. For nonparametric (non-normal) distributions, a two-tailed Levene's test was used to compare variances and a two-tailed Wilcoxon Rank Sum test was used to compare medians. Logistic regression was used to dichotomize the length of stay after transplant and the percent days out of target range for comparison. Statistical analyses were performed on JMP Pro 16.1.0.

[3] = human, in vivo
Source text: as §1
as §2, with “The patients in the PPM group were given tacrolimus dosages based on the present dosage calculation system and patients of the Control group were given tacrolimus dosages based on standard-of-care (SOC) dosing.” left out
After the third day, the Control group continued with the standard-of-care procedure while the PPM group subjects were given dosages calculated by the PPM prediction model, shown in the Function below. […]

Structure (SMILES): C=CC[C@@H]1/C=C(\C)C[C@H](C)C[C@H](OC)[C@H]2O[C@@](O)(C(=O)C(=O)N3CCCC[C@H]3C(=O)O[C@H](/C(C)=C/[C@@H]3CC[C@@H](O)[C@H](OC)C3)[C@H](C)[C@@H](O)CC1=O)[C@H](C)C[C@@H]2OC [tacrolimus]
- Average Deviation from Target Serum Level ([1]; Function 0, first row of Table 5 (one of the two PPM patients)): 2.9 ng/mL
- Average Deviation from Target Serum Level ([1]; Function 0, second row of Table 5 (one of the two PPM patients)): 1.6 ng/mL
- Average Deviation from Target Serum Level ([1]; Function 1, first row of Table 5): 2 ng/mL
- Average Deviation from Target Serum Level ([1]; Function 1, second row of Table 5): 1.2 ng/mL
- Average Deviation from Target Serum Level ([1]; Function 2, first row of Table 5): 1.4 ng/mL
- Average Deviation from Target Serum Level ([1]; Function 2, second row of Table 5): 0.6 ng/mL
- days after liver transplant until release from hospital ([2]; Control Patient, conventional titration): 19 days
- average hospital stay ([2]; Control group): 15.87 days
- day by which 90% of the patients were discharged ([2]; Control group): 25 days
- share of group with post-transplant length of stay two weeks or more ([2]; Control group): 65.5%
- median days to normalize AST levels (DAST) ([2]; Control group (Q1-Q3 6.25-11.75)): 8.5 days
- median length-of-stay (LOS) ([2]; Control group (Q1-Q3 10.5-20.5)): 15 days
- average hospital stay ([2]; Control group, two patients with the longest stay removed): 14.36 days
- days after liver transplant until release from hospital ([2]; First PPM Patient): 12 days
- average hospital stay ([2]; PPM group): 10.42 days
- day by which 90% of the patients were discharged ([2]; PPM group): 15 days
- share of group with post-transplant length of stay two weeks or more ([2]; PPM group (5/27)): 18.5%
- median days to normalize AST levels (DAST) ([2]; PPM group (Q1-Q3 4-8)): 6 days
- median length-of-stay (LOS) ([2]; PPM group (Q1-Q3 8-12)): 10 days
- reduction in the post-transplant length of stay ([2]; PPM group versus Control group): more than 30%
- average hospital stay ([2]; PPM group, two patients with the longest stay removed): 8 days
- day of release from hospital ([2]; Second PPM Patient): 11 days
- neurotoxicity leading to discontinuation of tacrolimus ([2]; one patient in each of the PPM group and the Control group, evidenced by brain imaging): neurotoxicity within the first week after transplant that was deemed not dose related
- decrease in the percentage of days with a large deviation from the target trough drug level [3]: 37%
- reduction of the mean AUC outside of target range [3]: 30%
